In ChEMBL document CHEMBL5154741, “Antibacterial alkylguanidino ureas: Molecular simplification approach, searching for membrane-based MoA” (Eur J Med Chem, 2022):

Legend:
Type in all cases: ADME, cell membranes
Conditions in all cases: pH 7.4, 5 h
[1] = Apparent permeability of the compound across bacterial inner membrane mimic PC-phospholipids in PBS buffer assessed as membrane retention at pH 7.4 incubated for 5 hrs in presence of 1,3-bis(8-carbamimidamidooctyl)-1,3-bis({8-[N'-(cyclopropylmethyl)carbamimidamido]octyl})urea by PAMPA based UV-Vis spectrophotometric analysis
[2] = Apparent permeability of the compound across bacterial inner membrane mimic PC-phospholipids in PBS buffer assessed as membrane retention at pH 7.4 incubated for 5 hrs by PAMPA based UV-Vis spectrophotometric analysis
[3] = (§1) Apparent permeability of the compound across bacterial inner membrane mimic pure POPG in PBS buffer assessed as membrane retention at pH 7.4 incubated for 5 hrs by PAMPA based UV-Vis spectrophotometric analysis
[4] = (§2) Apparent permeability of the compound across bacterial inner membrane mimic POPE/POPG (6:4) in PBS buffer assessed as membrane retention at pH 7.4 incubated for 5 hrs by PAMPA based UV-Vis spectrophotometric analysis
[5] = (§3) Apparent permeability of the compound across bacterial inner membrane mimic PC-phospholipids in PBS buffer assessed as membrane retention at pH 7.4 incubated for 5 hrs in presence of {8-[N'(cyclopropylmethyl)carbamimidamido]octyl}urea trifluoroacetate salt by PAMPA based UV-Vis spectrophotometric analysis
[6] = Apparent permeability of the compound across bacterial inner membrane mimic PC-phospholipids in PBS buffer assessed as membrane retention at pH 7.4 incubated for 5 hrs in presence of 1,1-bis({6-[N'-(cyclopropylmethyl)carbamimidamido]hexyl})-3-{8-[N'-(cyclopropylmethyl)carbamimidamido]octyl}-3-octylurea by PAMPA based UV-Vis spectrophotometric analysis
[7] = as §3, with “1,3-bis(8-aminooctyl)-1,3-bis(8- carbamimidamidooctyl)urea” for “{8-[N'(cyclopropylmethyl)carbamimidamido]octyl}urea”
[8] = as §3, with “1,3,3-tris(8-carbamimidamidooctyl)-1-{8-[N'-(cyclopropylmethyl)carbamimidamido]octyl}urea” for “{8-[N'(cyclopropylmethyl)carbamimidamido]octyl}urea”
[9] = as §1, with “hrs in presence of 1,3-bis(8-carbamimidamidooctyl)-1,3-bis({8-[N'-(cyclopropylmethyl)carbamimidamido]octyl})urea” for “hrs”
[10] = (§4) Apparent permeability of the compound across bacterial inner membrane mimic pure POPG in PBS buffer assessed as membrane retention at pH 7.4 incubated for 5 hrs in presence of {8-[N'(cyclopropylmethyl)carbamimidamido]octyl}urea trifluoroacetate salt by PAMPA based UV-Vis spectrophotometric analysis
[11] = as §1, with “hrs in presence of 1,1-bis({6-[N'-(cyclopropylmethyl)carbamimidamido]hexyl})-3-{8-[N'-(cyclopropylmethyl)carbamimidamido]octyl}-3-octylurea” for “hrs”
[12] = as §4, with “1,3-bis(8-aminooctyl)-1,3-bis(8- carbamimidamidooctyl)urea” for “{8-[N'(cyclopropylmethyl)carbamimidamido]octyl}urea”
[13] = as §4, with “1,3,3-tris(8-carbamimidamidooctyl)-1-{8-[N'-(cyclopropylmethyl)carbamimidamido]octyl}urea” for “{8-[N'(cyclopropylmethyl)carbamimidamido]octyl}urea”
[14] = as §2, with “hrs in presence of 1,3-bis(8-carbamimidamidooctyl)-1,3-bis({8-[N'-(cyclopropylmethyl)carbamimidamido]octyl})urea” for “hrs”
[15] = as §3, with “POPE/POPG (6:4)” for “PC-phospholipids”
[16] = as §2, with “hrs in presence of 1,1-bis({6-[N'-(cyclopropylmethyl)carbamimidamido]hexyl})-3-{8-[N'-(cyclopropylmethyl)carbamimidamido]octyl}-3-octylurea” for “hrs”
[17] = as §2, with “hrs in presence of 1,3-bis(8-aminooctyl)-1,3-bis(8- carbamimidamidooctyl)urea trifluoroacetate salt” for “hrs”
[18] = as §2, with “hrs in presence of 1,3,3-tris(8-carbamimidamidooctyl)-1-{8-[N'-(cyclopropylmethyl)carbamimidamido]octyl}urea trifluoroacetate salt” for “hrs”

## Cn1c(=O)c2c(ncn2C)n(C)c1=O [CAFFEINE]
[1]
  R%: 12.6%
[2]
  R%: 3.2%
[3]
  R%: 4.5%
[4]
  R%: 3.3%
[5]
  R%: 12.8%
[6]
  R%: 0%
[7]
  R%: 15.8%
[8]
  R%: 8.1%
[9]
  R%: 13.5%
[10]
  R%: 13.4%
[11]
  R%: 14.7%
[12]
  R%: 17.1%
[13]
  R%: 14.6%
[14]
  R%: 12.6%
[15]
  R%: 17.5%
[16]
  R%: 16.7%
[17]
  R%: 16.5%
[18]
  R%: 19%
